The source of these data is US20080032953A1, “Method For Inhibiting Prebiotic Effect Of Food Proteins” (Royal Canin SA,, priority 2004, published 2008).

The subject of one test is aerobic microflora. The test can be described thus: Growth of cat oral bacterial microflora in artificial saliva with protein, with or without phosphate: aerobic count. In kind it is cell-based. As to conditions: MP9007 1%. As for the experimental part:
(§1) For all the experiments, the bacterial microflora of the oral cavity was removed, kept in a conservation medium, and then cultured in artificial saliva according to the following protocol:
(§2) Two male cats of “European” race, weighing approximately 5.50 kg, were anesthetized with 0.3 ml of a solution of medetomidine at 0.085 g/100 ml (Domitor, ND) and 0.26 ml of a solution of ketamine at […] (Imalgene 1000, ND).
(§3) In each animal thus immobilized, the saliva was sterilely suctioned with a pipette and the base of the teeth, the gums and the gum pockets were scraped with the back of a sterile scalpel.
(§4) All the samples were transferred and well-diluted in 100 ml of a sterile conservation medium (thiocolate resazurin medium from Biokar supplemented with 25% of glycerol). The conservation medium containing the samples was transferred into tubes with microbeads (Cryobilles, ND from AES). These tubes were then incubated for 6 hours in an incubator at 37° C., in a jar under CO2, before being frozen for subsequent use.
(§5) When subsequently used, each tube is thawed at ambient temperature and then incubated for 12 hours at 37° C., in a jar under CO2. The aerobic and anaerobic bacteria are counted according to the methods described hereinafter. The content of each tube is subsequently diluted with the sterile conservation medium so as to have an inoculum of 5000 (3.70 log10) revivable microorganisms in 0.2 ml.
The aerobic microflora is cultured and then counted on a trypticase soy medium (Biokar) incubated at 37° C. for 48 hours.
(§6) The basic artificial saliva is prepared according to table 31 on page 244 of the manual Biological Handbooks—Metabolism, compiled and edited by Philip L. Altman and Dorothy S. Dittmer, published by Federation of American Societies for Experimental Biology, 1968.
(§7) This basic saliva is supplemented with L-cysteine at a rate of 0.5 g/liter in order to lower its redox potential so as to be able to grow therein both the aerobic bacterial microflora and the anaerobic bacterial microflora. The whole will subsequently be referred to as “artificial saliva”.
(§8) The artificial saliva is dispensed into test tubes at a rate of 20 ml per tube. Each tube is supplemented or not supplemented with the protein, in the presence or absence of the phosphate to be tested. Each treatment is composed of two tubes.
(§9) The whole is autoclaved at 110° C. for 15 minutes.
(§10) Each tube is subsequently inoculated with 0.2 ml of inoculum described above. The whole is incubated in an incubator at 37° C., with shaking.
(§11) After 24, 48 or 72 hours of incubation, the aerobic flora and the anaerobic flora are counted according to the methods described above.
(§12) The result of each treatment is the mean of the counts of two test tubes, expressed as log10 of C.F.U. (Colony Forming Units) per ml of artificial saliva.

Another test relates to anaerobic microflora. The experiment in a line: Growth of cat oral bacterial microflora in artificial saliva with protein, with or without phosphate: anaerobic count. In kind it is cell-based. As to conditions: MP9007 1%. As to the method: as §1, §2, §3, §4, §5
The anaerobic microflora is cultured and then counted on a Schaedler medium (Biokar) supplemented with 5% of sterile defibrinated sheep blood, incubated at 37° C., in a jar under CO2, for 48 hours.
as §6, §7, §8, §9, §10, §11, §12

Setting [1] is: Experiment 2, trisodium pyrophosphate 5%.
Setting [2] is: Experiment 2, trisodium pyrophosphate 10%.
Where [3] appears, read: Experiment 2, trisodium phosphate at 5%, from 24 hours of incubation.
[4] abbreviates: Experiment 2, trisodium phosphate incorporated at 10%.
The mark [5] stands for this setting: Experiment 3, trisodium pyrophosphate 0.5%.

Bounds are passed on as bounds.

As to `O=P([O-])([O-])OP(=O)([O-])O.[Na+].[Na+].[Na+]` [Trisodium pyrophosphate, trisodium pyrophosphate], in the test on aerobic microflora (setting [1]), the “Aerobic microflora CFU/ml, 24 hours” value was 6.88 log10 CFU/ml; the “Aerobic microflora CFU/ml, 48 hours” value was 7.56 log10 CFU/ml; the “Aerobic microflora CFU/ml, 72 hours” value is on record as 7.69 log10 CFU/ml. For the same compound, in the test on aerobic microflora (setting [2]), the “Aerobic microflora CFU/ml, 24 hours” value was less than 4.00 log10 CFU/ml; the “Aerobic microflora CFU/ml, 48 hours” value was found to be 4.88 log10 CFU/ml; the “Aerobic microflora CFU/ml, 72 hours” value is less than 4.00 log10 CFU/ml. Besides, the “Inhibitory effect on the prebiotic effect of MP9007, aerobic microflora (in words)” value in the test with aerobic microflora (setting [3]) was “very substantial”. Besides, in the test with aerobic microflora (setting [4]), the “Inhibition of the prebiotic effect of the MP9007 protein, aerobic microflora (in words)” value was “completely inhibited”. Moreover, the “Aerobic microflora CFU/ml, 24 hours” value with aerobic microflora (setting [5]) came out at 7.75 log10 CFU/ml. Moreover, in the test on anaerobic microflora (setting [1]), the “Anaerobic microflora CFU/ml, 24 hours” value came out at 6.88 log10 CFU/ml; the “Anaerobic microflora CFU/ml, 48 hours” value is 7.46 log10 CFU/ml; the “Anaerobic microflora CFU/ml, 72 hours” value amounted to 6.26 log10 CFU/ml. Further, in the test with anaerobic microflora (setting [2]), the “Anaerobic microflora CFU/ml, 24 hours” value is recorded as less than 4.00 log10 CFU/ml; the “Anaerobic microflora CFU/ml, 48 hours” value was less than 4.00 log10 CFU/ml; the “Anaerobic microflora CFU/ml, 72 hours” value is less than 4.00 log10 CFU/ml. The “Inhibitory effect on the prebiotic effect of MP9007, anaerobic microflora (in words)” value with anaerobic microflora (setting [3]) is “very substantial”. In the test on anaerobic microflora (setting [4]), the “Inhibition of the prebiotic effect of the MP9007 protein, anaerobic microflora (in words)” value is “completely inhibited”. The “Anaerobic microflora CFU/ml, 24 hours” value in the test with anaerobic microflora (setting [5]) came to 7.75 log10 CFU/ml.
